Experimental data published in PubChem BioAssay (NCI).
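Where inhibition never reached the appropriate level, the endpoint shown equals the highest concentration tested. Otherwise, values were interpolated linearly from a five-concentration, 48-hour dose response in 96-well plates. The concentration for 50% growth inhibition is given as GI50. Definition used: TGI = concentration required for complete inhibition of growth.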

What was measured:
Experiment in all cases: NCI-60 cell line screen, 48 h
EKVX NSCLC = system: EKVX NSCLC
K-562 leukemia = system: K-562 leukemia
KM12 colon = system: KM12 colon
M14 melanoma = system: M14 melanoma
NCI-H23 lung = system: NCI-H23 lung
NCI/ADR-RES ovarian = system: NCI/ADR-RES ovarian
PC-3 prostate = system: PC-3 prostate
SF-268 CNS = system: SF-268 CNS
SK-MEL-2 melanoma = system: SK-MEL-2 melanoma
SK-MEL-28 melanoma = system: SK-MEL-28 melanoma

Compound | GI50 (EKVX NSCLC) [µM] | TGI (EKVX NSCLC) [µM] | GI50 (K-562 leukemia) [µM] | TGI (K-562 leukemia) [µM] | GI50 (KM12 colon) [µM] | TGI (KM12 colon) [µM] | GI50 (M14 melanoma) [µM] | TGI (M14 melanoma) [µM] | GI50 (NCI-H23 lung) [µM] | TGI (NCI-H23 lung) [µM] | GI50 (NCI/ADR-RES ovarian) [µM] | TGI (NCI/ADR-RES ovarian) [µM] | GI50 (PC-3 prostate) [µM] | TGI (PC-3 prostate) [µM] | GI50 (SF-268 CNS) [µM] | TGI (SF-268 CNS) [µM] | GI50 (SK-MEL-2 melanoma) [µM] | TGI (SK-MEL-2 melanoma) [µM] | GI50 (SK-MEL-28 melanoma) [µM] | TGI (SK-MEL-28 melanoma) [µM]
O=[P@@]1(c2ccccc2)O[C@H](COCc2ccccc2)[C@@H](OCc2ccccc2)[C@H](OCc2ccccc2)[C@H]1NCc1ccccc1 | 2.71 | > 100 | 2.86 | > 100 | 3.21 | 47.3 | 3.21 | > 100 | 3.66 | > 100 | 3.16 | > 100 | 3.03 | > 100 | 3.47 | > 100 | 3.73 | > 100 | 4.48 | > 100
CCc1c(Cl)c(C)cc(O)c1Cl |  | > 100 |  | > 100 |  | > 100 |  | 92.5 |  | > 100 |  | > 100 |  | 51.3 |  | > 100 |  | 68.3 |  | > 100
CC1(C)N=C(N)N=C(N)N1c1ccc(CCCCc2ccc(Cl)c(S(=O)(=O)F)c2)c(Cl)c1 | 2.81 | 37.7 | 0.127 | 15.8 | 1.36 | 7.81 | 0.756 | > 41.2 | 0.843 | 19 | 40 | > 100 | 0.214 | 15.1 | 0.509 | 15.9 | 2.45 | > 33.6 | 1.96 | 16.5
CS(=O)(=O)Nc1cc(-c2ccc3ncnc(Nc4c(Cl)ccc5c4OCO5)c3c2)cnc1Cl | 0.116 | 0.824 | 0.484 | > 48.4 | 0.465 | 1.87 | 0.2 | 1.48 | 0.25 | 4 | 0.477 | 4.19 | 0.178 | 1.77 | 0.119 | 1.48 | 0.232 | 1.04 | 0.12 | 1.03
Oc1ccc2ccccc2c1N=Nc1ccc(Br)cc1 |  | > 100 |  | > 100 |  | > 100 |  | > 100 |  | > 100 |  | > 100 |  | > 100 |  | > 100 |  | > 100 |  | > 100
C[C@H](Nc1cc(Cl)nc2c1cnn2[C@@H]1O[C@H](COP(=O)(O)CP(=O)(O)O)[C@@H](O)[C@H]1O)c1ccccc1F | > 100 | > 100 | > 100 | > 100 | > 100 | > 100 | > 100 | > 100 | > 100 | > 100 | > 100 | > 100 | > 100 | > 100 | > 100 | > 100 | > 100 | > 100 | > 100 | > 100
Cc1cc2cc3c(=O)[nH]c(=O)[nH]c3nc2cc1C |  | > 100 |  | > 100 |  | > 100 |  | > 100 |  | > 100 |  | > 100 |  | > 100 |  | > 100 |  | > 100 |  | > 100
Oc1ccc(Nc2c3ccccc3nc3occ(Cl)c23)cc1 | 14.8 | > 100 | 2.24 | 53.1 | 2.78 | 17 | 3.79 | 26.8 | 3.26 | > 100 | 2.69 | 18.2 | 2.71 | 20.3 | 4.26 | > 100 | 2.62 | 7.26 | 6.18 | 63.8
CC(C)=CCc1cc(O)cc2c1OC(C=C(C)C)C1=C2C(=O)C2=C(C1=O)S(=O)(=O)CCN2 (stereo not given) | 3.3 | 9.16 | 4.68 | > 16.7 | 5.8 | > 16.7 | 2.92 | 5.59 | 3.85 | 12.9 | > 16.7 | > 16.7 | 5.09 | > 16.7 | 2.91 | 8.37 | 3.13 | 6.56 | 3.12 | 6.04
O=C(O)c1ccc(C(=O)O)c2c(C(=O)O)ccc(C(=O)O)c12 |  | > 100 |  | > 100 |  | > 100 |  | > 100 |  | > 100 |  | > 100 |  | > 100 |  | > 100 |  | > 100 |  | > 100
O=[N+]([O-])c1cccc2ccc(N/N=C/c3ccccc3O)nc12 | > 100 | > 100 | 1.46 | > 100 | > 100 | > 100 | > 100 | > 100 | > 100 | > 100 | > 100 | > 100 | 4.67 | > 100 | > 100 | > 100 | > 100 | > 100 | > 100 | > 100
CCOC(=O)/C=C/c1ccc(C#Cc2ccccc2)cc1 | 0.0608 | 43.1 | 72 | > 100 | > 100 | > 100 | > 100 | > 100 | 95 | > 100 | > 100 | > 100 | > 100 | > 100 | > 100 | > 100 | > 100 | > 100 | > 100 | > 100
O=C(CNS(=O)(=O)Cc1ccccc1)NNc1ccccc1 |  | > 100 |  | > 100 |  | > 100 |  | > 100 |  | > 100 |  | > 100 |  | > 100 |  | > 100 |  | > 100 |  | > 100
COc1ccccc1Nc1ncc(-c2ccccc2)o1 | > 25 | > 25 | > 25 | > 25 | 9.77 | > 25 | > 25 | > 25 | > 25 | > 25 | > 25 | > 25 | > 25 | > 25 | > 25 | > 25 | > 25 | > 25 | > 25 | > 25
